Source: paper PMC10384572, “Marine Meroterpenoids Isolated from Gongolaria abies-marina Induce Programmed Cell Death in Naegleria fowleri” (Pharmaceuticals, 2023)

What was measured:
[1] = In vitro cytotoxicity against murine macrophages (alamarBlue); format: cell-based; conditions: mouse, J774A.1 murine macrophages (ATCC TIB-67), murine macrophages J774A.1, 24 h, mean ± SD
Method: Murine macrophages from the J774A.1 cell line (ATCC® TIB-67) were maintained in Dulbecco’s Modified Eagle’s medium (DMEM) in order to evaluate the toxicity of the compounds. In addition, 10% (v/v) FBS and 10 μg/mL gentamicin (Sigma-Aldrich, Madrid, Spain) were added to the growth medium. Cells were grown in a 5% CO2 atmosphere at 37 °C.
For the cytotoxicity assays, the same protocol as detailed in Section 4.4 above was used. Murine macrophages were incubated with serial dilutions of the evaluated compounds at 37 °C in a 5% CO2 atmosphere over 24 h. The obtained data were analyzed as described in the previous section in order to calculate the CC50.
(§1) The in vitro IC50, IC90, and CC50 of the compounds were determined by a non-linear regression with a 95% confidence limit. The SigmaPlot 12.0 software (Systat Sofware Inc., London, UK) was used to perform the data analysis using a paired two-tailed t-test. Values of p < 0.05 were considered significant. The data represent the mean value and the SD of the conducted three different experiments.

[2] = system: Acanthamoeba; set-up: method as in PMID 36916403; conditions: cited from earlier work
[3] = system: N. fowleri ATCC® 30808; experiment: In vitro activity against N. fowleri trophozoites (alamarBlue), strain ATCC 30808; format: cell-based, Naegleria fowleri; conditions: for IC50: Naegleria fowleri, ATCC30808, N. fowleri trophozoites, 48 h, alamarBlue, mean ± SD, read-out: IC50 ATCC® 30808; for Anti-Naegleria activity (in words): both tested strains of N. fowleri
Method: (§2) The in vitro activity against N. fowleri trophozoites was evaluated in two different strains from the American Type Culture Collection (LG Promochem, Barcelona, Spain), ATCC® 30808™ and ATCC® 30215™. Cells were axenically grown in 2% Bactocasitone (w/v) medium (Thermo Fisher Scientific, Madrid, Spain) at 37 °C. Moreover, 10% (v/v) of fetal bovine serum (FBS) 0.3 μg/mL of Penicillin G Sodium Salt and 0.5 mg/mL of Streptomycin sulphate (Sigma-Aldrich, Madrid, Spain) were also added to the Bactocasitone medium.
(§3) For these assays, a colorimetric assay was conducted using the alamarBlue® reagent. Briefly, N. fowleri trophozoites were seeded in duplicate in a 96-well microtiter plate. After that, different concentrations of the evaluated meroterpenoids diluted in fresh Bactocasitone were added to the wells. The negative control consisted on the trophozoites incubated with the medium alone. Lastly, the alamarBlue® (Life Technologies, Madrid, Spain) reagent was added. Plates were incubated in slight agitation at 37 °C. After 48 h, the fluorescence of the wells was analyzed in an EnSpire Multimode Plate Reader (Perkin Elmer, Madrid, Spain) using a wavelength of excitation of 570 nm and a wavelength of emission of 585 nm.
(§4) In order to calculate the IC50 and IC90, a nonlinear regression analysis with a 95% confidence limit was performed.
as §1

[4] = system: N. fowleri ATCC® 30215; experiment: In vitro activity against N. fowleri trophozoites (alamarBlue), strain ATCC 30215; format: cell-based; conditions: Naegleria fowleri, ATCC30215, 48 h, mean ± SD
Method: as §2, §3, §4, §1

SMILES	CC50 at 24 h [1]	Activity against tested species of Acanthamoeba (in words) [2]	IC50 [3]	Anti-Naegleria activity (in words) [3]	IC50 [4]	Anti-Naegleria activity (in words) ([3]; listed as 5)	Anti-Naegleria activity (in words) ([3]; listed as gongolarone C (5))
COc1c(C)cc(O)cc1C/C=C(\C)CC(=O)/C=C(\C)CCC[C@@H](C)[C@H]1C[C@@H](O)C(C)(C)O1 [Gongolarone A (4), gongolarone A]	> 400 µM	most active	> 100 µM	no anti-Naegleria activity			
C[C@@H]1[C@H](O)[C@@H](C)/C=C/C=C/C=C/C=C/C=C/C=C/C=C/[C@H](O[C@@H]2O[C@H](C)[C@@H](O)[C@H](N)[C@@H]2O)C[C@@H]2O[C@](O)(C[C@@H](O)C[C@@H](O)[C@H](O)CC[C@@H](O)C[C@@H](O)CC(=O)O[C@H]1C)C[C@H](O)[C@H]2C(=O)O [Amphotericin B, amphotericin B, reference compound]	> 200 µM		0.12 ± 0.03 µM		0.16 ± 0.03 µM		
COc1c(C)cc(O)cc1CC/C(C)=C/C(=O)/C=C(\C)CCC[C@@H](C)C(=O)/C=C/C(C)(C)O [Gongolarone C (5), gongolarone C]	> 400 µM	most active	> 100 µM			no anti-Naegleria activity	loss of activity
CCCCCCCCCCCCCCCCOP(=O)([O-])OCC[N+](C)(C)C [Miltefosine, miltefosine, reference compound]	128 ± 8.85 µM		38.7 ± 4.23 µM		81.6 ± 7.23 µM		
